ChEMBL document CHEMBL1201862, “PubChem BioAssay data set” (2004)
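Interpolation was linear, between the two tested concentrations surrounding the appropriate level; five concentrations were tested over 48 hours in 96-well plates. GI50: concentration for 50% inhibition of growth.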 The source made the active and inactive calls. Cut-off read from the data, not from the text of the source: active = GI50 up to about 1.1 µM and inactive = higher.

Columns and labels:
Experiment in all cases: NCI tumour cell line growth inhibition, 48 h
HCC 2998 = tested on: HCC 2998
SK-MEL-2 = tested on: SK-MEL-2
MCF7 = tested on: MCF7
IGROV-1 = tested on: IGROV-1
A549 = tested on: A549
NCI-H460 = tested on: NCI-H460
SK-MEL-5 = tested on: SK-MEL-5
NCI-H23 = tested on: NCI-H23
SW-620 = tested on: SW-620
HL-60 = tested on: HL-60
PC-3 = tested on: PC-3
OVCAR-5 = tested on: OVCAR-5
SF-539 = tested on: SF-539
TK-10 = tested on: TK-10
SN12C = tested on: SN12C
U-251 = tested on: U-251
NCI-H522 = tested on: NCI-H522
DU-145 = tested on: DU-145
MDA-MB-231 = tested on: MDA-MB-231
T47D = tested on: T47D

| SMILES | GI50 (HCC 2998) | GI50 (SK-MEL-2) | GI50 (MCF7) | GI50 (IGROV-1) | GI50 (A549) | GI50 (NCI-H460) | GI50 (SK-MEL-5) | GI50 (NCI-H23) | GI50 (SW-620) | GI50 (HL-60) | GI50 (PC-3) | GI50 (OVCAR-5) | GI50 (SF-539) | GI50 (TK-10) | GI50 (SN12C) | GI50 (U-251) | GI50 (NCI-H522) | GI50 (DU-145) | GI50 (MDA-MB-231) | GI50 (T47D) |
| --- | --- | --- | --- | --- | --- | --- | --- | --- | --- | --- | --- | --- | --- | --- | --- | --- | --- | --- | --- | --- |
| C/C=C1\CN(C(=O)OC(C)(C)C)C1C(=O)OC(C)(C)C (stereo unspecified) | > 100 µM (inactive) | > 100 µM (inactive) | > 100 µM (inactive) | > 100 µM (inactive) | > 100 µM (inactive) | > 100 µM (inactive) | > 100 µM (inactive) | > 100 µM (inactive) | > 100 µM (inactive) | 21.3 µM (inactive) | > 100 µM (inactive) | > 100 µM (inactive) | > 100 µM (inactive) | > 100 µM (inactive) | > 100 µM (inactive) | – | – | – | – | – |
| COC(=O)C(Cc1nc2ccccc2nc1C)/C(=N\NC(N)=O)C(=O)Nc1cccc([N+](=O)[O-])c1 (stereo unspecified) | > 100 µM (inactive) | > 100 µM (inactive) | – | > 100 µM (inactive) | > 100 µM (inactive) | > 100 µM (inactive) | > 100 µM (inactive) | 71.8 µM (inactive) | > 100 µM (inactive) | 36.1 µM (inactive) | – | > 100 µM (inactive) | 74.3 µM (inactive) | > 100 µM (inactive) | > 100 µM (inactive) | 37.6 µM (inactive) | 10.8 µM (inactive) | – | – | – |
| CC1(C)OC(CCO)CN1C(=O)OCc1ccccc1 (stereo unspecified) | > 100 µM (inactive) | > 100 µM (inactive) | > 100 µM (inactive) | > 100 µM (inactive) | > 100 µM (inactive) | > 100 µM (inactive) | > 100 µM (inactive) | > 100 µM (inactive) | > 100 µM (inactive) | > 100 µM (inactive) | > 100 µM (inactive) | > 100 µM (inactive) | > 100 µM (inactive) | > 100 µM (inactive) | > 100 µM (inactive) | > 100 µM (inactive) | 74.6 µM (inactive) | > 100 µM (inactive) | > 100 µM (inactive) | – |
| CN(C)c1ccc(-c2c(C#N)c(O)n(NS(=O)(=O)c3ccccc3)c(=O)c2C#N)cc1 | > 100 µM (inactive) | > 100 µM (inactive) | > 100 µM (inactive) | > 100 µM (inactive) | > 100 µM (inactive) | > 100 µM (inactive) | > 100 µM (inactive) | – | > 100 µM (inactive) | > 100 µM (inactive) | > 100 µM (inactive) | 0.912 µM (active) | > 100 µM (inactive) | > 100 µM (inactive) | > 100 µM (inactive) | > 100 µM (inactive) | > 100 µM (inactive) | – | > 100 µM (inactive) | – |
| CCC(=O)NC(Nc1cc(C)on1)(C(F)(F)F)C(F)(F)F | > 100 µM (inactive) | > 100 µM (inactive) | > 100 µM (inactive) | > 100 µM (inactive) | > 100 µM (inactive) | > 100 µM (inactive) | > 100 µM (inactive) | > 100 µM (inactive) | > 100 µM (inactive) | > 100 µM (inactive) | – | > 100 µM (inactive) | > 100 µM (inactive) | > 100 µM (inactive) | > 100 µM (inactive) | > 100 µM (inactive) | > 100 µM (inactive) | > 100 µM (inactive) | > 100 µM (inactive) | > 100 µM (inactive) |
| C=CCCCCCC(O)C(O)C/C=C\C/C=C\CC (stereo unspecified) | > 18.8 µM (inactive) | > 18.8 µM (inactive) | – | > 18.8 µM (inactive) | > 18.8 µM (inactive) | 13.5 µM (inactive) | > 17.5 µM (inactive) | > 17.8 µM (inactive) | > 18.8 µM (inactive) | > 7.71 µM (inactive) | – | > 18.8 µM (inactive) | > 18.8 µM (inactive) | > 18.8 µM (inactive) | > 18.8 µM (inactive) | > 18.8 µM (inactive) | > 18.8 µM (inactive) | – | – | – |
| COc1cc(C)c2c(=O)c3ccccc3n(C)c2c1 | 45 µM (inactive) | 36.4 µM (inactive) | 28.2 µM (inactive) | 26.9 µM (inactive) | 38.5 µM (inactive) | 33.3 µM (inactive) | > 10 µM (inactive) | 24.3 µM (inactive) | 45.3 µM (inactive) | 32.7 µM (inactive) | 28.8 µM (inactive) | 16.9 µM (inactive) | 15.6 µM (inactive) | 40.9 µM (inactive) | 20.7 µM (inactive) | 20 µM (inactive) | 2.54 µM (inactive) | 33.2 µM (inactive) | 25.6 µM (inactive) | – |
| O=C(O)CCC1(CCC(=O)O)CCCCCCCCC(CCC(=O)O)(CCC(=O)O)C(=O)C1=O | > 100 µM (inactive) | > 100 µM (inactive) | > 100 µM (inactive) | – | > 100 µM (inactive) | > 100 µM (inactive) | – | > 100 µM (inactive) | > 100 µM (inactive) | > 100 µM (inactive) | > 100 µM (inactive) | > 100 µM (inactive) | > 100 µM (inactive) | > 100 µM (inactive) | > 100 µM (inactive) | > 100 µM (inactive) | > 100 µM (inactive) | > 100 µM (inactive) | – | > 100 µM (inactive) |
